Where two headings read alike, the source gives them in different places.
Assays:
Assay in all cases: biochemical
Parameters in all cases: KINOMEscan scanMAX competition binding, DNA-tagged kinases, qPCR read-out, percent control at 300 nM
[1] = target: T1, BRK (Homo sapiens, UniProt Q13882)
T1 construct: gene PTK6

[2] = target: T2, DMPK2 (Homo sapiens, UniProt Q6DT37)
T2 construct: gene CDC42BPG

[3] = target: T3, EPHA3 (Homo sapiens, UniProt P29320)
T3 sequence (P29320 1-983): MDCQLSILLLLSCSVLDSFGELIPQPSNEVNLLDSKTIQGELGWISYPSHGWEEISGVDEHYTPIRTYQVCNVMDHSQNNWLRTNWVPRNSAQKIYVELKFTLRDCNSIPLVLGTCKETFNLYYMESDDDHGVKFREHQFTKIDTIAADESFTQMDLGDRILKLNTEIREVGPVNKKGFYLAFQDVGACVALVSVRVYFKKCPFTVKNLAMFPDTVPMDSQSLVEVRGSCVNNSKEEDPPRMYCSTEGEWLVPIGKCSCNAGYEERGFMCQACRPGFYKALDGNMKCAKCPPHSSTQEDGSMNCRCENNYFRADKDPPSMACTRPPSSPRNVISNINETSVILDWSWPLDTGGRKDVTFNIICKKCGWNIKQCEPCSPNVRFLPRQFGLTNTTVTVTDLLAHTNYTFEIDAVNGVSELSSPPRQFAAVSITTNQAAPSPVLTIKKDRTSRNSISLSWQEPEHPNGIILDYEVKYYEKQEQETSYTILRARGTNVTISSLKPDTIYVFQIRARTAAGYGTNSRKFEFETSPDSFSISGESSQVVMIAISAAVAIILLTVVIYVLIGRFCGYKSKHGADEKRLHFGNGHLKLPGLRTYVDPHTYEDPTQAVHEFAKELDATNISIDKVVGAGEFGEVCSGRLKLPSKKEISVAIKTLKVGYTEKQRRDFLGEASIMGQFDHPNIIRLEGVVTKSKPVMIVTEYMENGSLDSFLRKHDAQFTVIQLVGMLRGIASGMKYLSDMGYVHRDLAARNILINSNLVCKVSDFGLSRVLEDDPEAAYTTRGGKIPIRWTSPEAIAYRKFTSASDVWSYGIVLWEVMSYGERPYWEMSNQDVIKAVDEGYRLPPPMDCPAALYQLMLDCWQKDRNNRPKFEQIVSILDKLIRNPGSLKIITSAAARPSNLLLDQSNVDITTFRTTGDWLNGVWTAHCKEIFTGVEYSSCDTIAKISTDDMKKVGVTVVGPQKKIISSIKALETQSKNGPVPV

[4] = target: ERN1 (Homo sapiens, UniProt O75460)
[5] = target: T4, FLT3(K663Q) (Homo sapiens, UniProt P36888, K663Q)
T4 sequence (P36888 1-993 K663Q): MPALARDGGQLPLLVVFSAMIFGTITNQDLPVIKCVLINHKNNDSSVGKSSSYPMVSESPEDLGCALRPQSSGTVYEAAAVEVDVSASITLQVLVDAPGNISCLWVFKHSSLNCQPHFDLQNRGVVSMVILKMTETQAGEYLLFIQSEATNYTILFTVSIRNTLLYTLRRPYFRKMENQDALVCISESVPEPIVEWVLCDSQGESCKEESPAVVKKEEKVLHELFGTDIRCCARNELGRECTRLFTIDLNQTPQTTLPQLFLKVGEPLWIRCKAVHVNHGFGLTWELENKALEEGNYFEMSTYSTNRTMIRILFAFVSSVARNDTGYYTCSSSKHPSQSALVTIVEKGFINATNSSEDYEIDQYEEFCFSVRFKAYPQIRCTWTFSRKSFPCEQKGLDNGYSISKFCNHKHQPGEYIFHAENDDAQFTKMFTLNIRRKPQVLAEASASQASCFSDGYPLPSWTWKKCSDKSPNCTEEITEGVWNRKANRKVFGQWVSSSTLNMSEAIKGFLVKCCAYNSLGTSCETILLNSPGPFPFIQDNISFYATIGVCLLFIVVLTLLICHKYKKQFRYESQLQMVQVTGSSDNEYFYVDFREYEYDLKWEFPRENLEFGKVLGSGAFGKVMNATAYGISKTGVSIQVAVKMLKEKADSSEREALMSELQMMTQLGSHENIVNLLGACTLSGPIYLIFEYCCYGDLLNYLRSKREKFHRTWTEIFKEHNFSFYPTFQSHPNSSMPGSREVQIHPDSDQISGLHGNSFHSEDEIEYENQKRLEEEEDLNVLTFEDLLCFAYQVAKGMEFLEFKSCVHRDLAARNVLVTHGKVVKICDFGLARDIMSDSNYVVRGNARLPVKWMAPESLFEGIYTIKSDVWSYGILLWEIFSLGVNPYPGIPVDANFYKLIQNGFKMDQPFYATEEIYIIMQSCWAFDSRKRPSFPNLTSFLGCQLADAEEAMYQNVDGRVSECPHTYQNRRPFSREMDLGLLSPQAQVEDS

[6] = target: T5, JAK2(JH1domain-catalytic) (Homo sapiens, UniProt O60674)
T5 construct: JH1domain-catalytic

[7] = target: T6, PAK7 (Homo sapiens, UniProt Q9P286)
T6 construct: gene PAK5

[8] = target: ROS1 (Homo sapiens, UniProt P08922)
[9] = target: PIK3CA(I800L) (Homo sapiens, UniProt P42336, I800L)
[10] = read-out: Percent control / Acalabrutinib
[11] = read-out: Percent control / Ibrutinib
[12] = read-out: Percent control / Tirabrutinib
[13] = read-out: Percent control / Zanubrutinib

T2 sequence (Q6DT37 whole entry): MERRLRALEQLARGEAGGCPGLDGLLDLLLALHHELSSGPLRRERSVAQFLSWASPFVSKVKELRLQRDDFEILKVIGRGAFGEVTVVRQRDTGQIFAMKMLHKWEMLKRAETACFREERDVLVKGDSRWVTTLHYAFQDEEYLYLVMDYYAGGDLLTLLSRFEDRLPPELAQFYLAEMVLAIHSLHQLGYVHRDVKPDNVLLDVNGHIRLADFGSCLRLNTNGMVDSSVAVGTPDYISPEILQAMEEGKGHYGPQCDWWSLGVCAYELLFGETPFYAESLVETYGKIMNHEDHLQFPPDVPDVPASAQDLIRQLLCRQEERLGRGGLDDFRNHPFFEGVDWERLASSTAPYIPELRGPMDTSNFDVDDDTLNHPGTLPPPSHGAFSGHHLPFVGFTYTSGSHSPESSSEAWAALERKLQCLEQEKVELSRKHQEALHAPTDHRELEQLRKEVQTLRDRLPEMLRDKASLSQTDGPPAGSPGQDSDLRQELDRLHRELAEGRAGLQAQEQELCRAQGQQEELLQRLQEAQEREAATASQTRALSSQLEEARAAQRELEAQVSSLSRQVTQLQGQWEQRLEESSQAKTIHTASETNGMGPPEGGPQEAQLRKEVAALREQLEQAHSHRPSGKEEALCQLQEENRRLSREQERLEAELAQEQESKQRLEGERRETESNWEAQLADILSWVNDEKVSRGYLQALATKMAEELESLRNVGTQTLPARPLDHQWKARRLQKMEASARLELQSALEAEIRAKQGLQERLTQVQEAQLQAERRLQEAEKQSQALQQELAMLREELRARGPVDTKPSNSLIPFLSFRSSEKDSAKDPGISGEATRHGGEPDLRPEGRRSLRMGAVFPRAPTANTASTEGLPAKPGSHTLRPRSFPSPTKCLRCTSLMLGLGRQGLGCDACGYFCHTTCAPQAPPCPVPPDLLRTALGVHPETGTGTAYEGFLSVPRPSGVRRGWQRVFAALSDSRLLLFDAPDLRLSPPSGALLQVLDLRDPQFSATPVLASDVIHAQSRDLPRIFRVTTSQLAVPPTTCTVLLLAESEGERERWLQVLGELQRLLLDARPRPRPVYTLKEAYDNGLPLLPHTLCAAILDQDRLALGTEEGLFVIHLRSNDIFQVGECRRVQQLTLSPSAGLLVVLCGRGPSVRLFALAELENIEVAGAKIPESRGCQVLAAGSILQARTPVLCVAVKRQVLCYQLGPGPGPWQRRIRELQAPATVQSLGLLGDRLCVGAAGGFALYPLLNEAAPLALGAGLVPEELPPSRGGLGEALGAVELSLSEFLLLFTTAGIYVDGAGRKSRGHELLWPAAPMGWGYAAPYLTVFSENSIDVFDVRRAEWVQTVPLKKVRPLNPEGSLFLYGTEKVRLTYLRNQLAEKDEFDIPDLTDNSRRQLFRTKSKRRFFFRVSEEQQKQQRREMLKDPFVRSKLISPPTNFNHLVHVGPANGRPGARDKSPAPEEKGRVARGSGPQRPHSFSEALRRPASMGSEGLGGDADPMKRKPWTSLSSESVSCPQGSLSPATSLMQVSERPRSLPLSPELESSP
Sequence of ERN1 (O75460 whole entry): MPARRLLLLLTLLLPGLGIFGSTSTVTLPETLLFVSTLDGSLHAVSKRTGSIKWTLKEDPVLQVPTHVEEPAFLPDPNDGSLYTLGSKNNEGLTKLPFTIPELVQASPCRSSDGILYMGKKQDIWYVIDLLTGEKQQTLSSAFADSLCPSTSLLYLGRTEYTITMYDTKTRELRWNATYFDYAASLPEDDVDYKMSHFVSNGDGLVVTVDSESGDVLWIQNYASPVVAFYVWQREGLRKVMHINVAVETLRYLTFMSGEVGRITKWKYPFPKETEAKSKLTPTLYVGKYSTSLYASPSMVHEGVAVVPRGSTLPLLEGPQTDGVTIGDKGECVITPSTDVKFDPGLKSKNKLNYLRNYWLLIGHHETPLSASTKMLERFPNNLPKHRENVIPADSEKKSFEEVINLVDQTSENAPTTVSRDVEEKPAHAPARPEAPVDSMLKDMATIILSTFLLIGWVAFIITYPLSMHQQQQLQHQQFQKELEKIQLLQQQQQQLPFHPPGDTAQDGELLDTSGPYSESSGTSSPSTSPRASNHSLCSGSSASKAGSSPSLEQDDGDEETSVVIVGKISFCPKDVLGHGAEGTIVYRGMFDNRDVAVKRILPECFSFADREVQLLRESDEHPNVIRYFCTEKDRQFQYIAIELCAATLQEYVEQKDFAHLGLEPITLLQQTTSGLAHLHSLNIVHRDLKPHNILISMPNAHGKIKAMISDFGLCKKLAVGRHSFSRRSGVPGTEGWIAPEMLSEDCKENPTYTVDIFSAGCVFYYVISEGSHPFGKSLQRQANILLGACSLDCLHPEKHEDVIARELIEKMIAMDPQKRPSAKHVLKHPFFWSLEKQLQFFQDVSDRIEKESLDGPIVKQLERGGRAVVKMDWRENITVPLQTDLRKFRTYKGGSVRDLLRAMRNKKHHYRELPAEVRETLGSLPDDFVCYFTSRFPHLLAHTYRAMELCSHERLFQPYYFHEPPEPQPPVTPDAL
T1 sequence (Q13882 whole entry): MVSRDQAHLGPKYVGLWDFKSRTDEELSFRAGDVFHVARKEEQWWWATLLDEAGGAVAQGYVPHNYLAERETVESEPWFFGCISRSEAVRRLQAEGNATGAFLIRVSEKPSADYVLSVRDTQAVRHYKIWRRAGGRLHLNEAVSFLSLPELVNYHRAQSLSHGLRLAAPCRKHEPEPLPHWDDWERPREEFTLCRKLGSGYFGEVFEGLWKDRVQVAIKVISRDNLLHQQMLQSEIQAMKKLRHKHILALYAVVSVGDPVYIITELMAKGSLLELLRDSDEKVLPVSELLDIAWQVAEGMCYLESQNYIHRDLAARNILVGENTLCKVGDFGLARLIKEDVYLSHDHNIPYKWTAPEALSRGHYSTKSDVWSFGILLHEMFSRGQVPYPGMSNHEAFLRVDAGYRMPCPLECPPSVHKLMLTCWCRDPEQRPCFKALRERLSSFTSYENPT
T6 sequence (Q9P286 whole entry): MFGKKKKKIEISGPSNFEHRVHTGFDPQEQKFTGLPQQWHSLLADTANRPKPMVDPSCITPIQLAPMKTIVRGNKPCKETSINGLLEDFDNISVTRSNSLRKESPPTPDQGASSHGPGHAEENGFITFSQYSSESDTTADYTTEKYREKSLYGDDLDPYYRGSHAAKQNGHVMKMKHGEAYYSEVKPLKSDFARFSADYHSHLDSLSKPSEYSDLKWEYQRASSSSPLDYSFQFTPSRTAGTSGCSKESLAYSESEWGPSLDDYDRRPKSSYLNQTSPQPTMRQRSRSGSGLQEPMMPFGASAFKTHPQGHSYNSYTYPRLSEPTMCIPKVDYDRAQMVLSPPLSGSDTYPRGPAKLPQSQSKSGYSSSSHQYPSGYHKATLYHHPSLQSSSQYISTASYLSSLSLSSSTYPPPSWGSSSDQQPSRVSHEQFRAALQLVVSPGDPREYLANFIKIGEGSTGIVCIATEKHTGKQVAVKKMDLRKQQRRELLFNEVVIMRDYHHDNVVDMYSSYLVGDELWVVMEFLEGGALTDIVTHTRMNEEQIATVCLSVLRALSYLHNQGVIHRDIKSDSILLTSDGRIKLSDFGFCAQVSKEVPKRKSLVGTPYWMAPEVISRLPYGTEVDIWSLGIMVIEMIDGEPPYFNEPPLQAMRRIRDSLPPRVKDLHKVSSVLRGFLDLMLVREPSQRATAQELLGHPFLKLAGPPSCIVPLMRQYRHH
T5 sequence (O60674 whole entry): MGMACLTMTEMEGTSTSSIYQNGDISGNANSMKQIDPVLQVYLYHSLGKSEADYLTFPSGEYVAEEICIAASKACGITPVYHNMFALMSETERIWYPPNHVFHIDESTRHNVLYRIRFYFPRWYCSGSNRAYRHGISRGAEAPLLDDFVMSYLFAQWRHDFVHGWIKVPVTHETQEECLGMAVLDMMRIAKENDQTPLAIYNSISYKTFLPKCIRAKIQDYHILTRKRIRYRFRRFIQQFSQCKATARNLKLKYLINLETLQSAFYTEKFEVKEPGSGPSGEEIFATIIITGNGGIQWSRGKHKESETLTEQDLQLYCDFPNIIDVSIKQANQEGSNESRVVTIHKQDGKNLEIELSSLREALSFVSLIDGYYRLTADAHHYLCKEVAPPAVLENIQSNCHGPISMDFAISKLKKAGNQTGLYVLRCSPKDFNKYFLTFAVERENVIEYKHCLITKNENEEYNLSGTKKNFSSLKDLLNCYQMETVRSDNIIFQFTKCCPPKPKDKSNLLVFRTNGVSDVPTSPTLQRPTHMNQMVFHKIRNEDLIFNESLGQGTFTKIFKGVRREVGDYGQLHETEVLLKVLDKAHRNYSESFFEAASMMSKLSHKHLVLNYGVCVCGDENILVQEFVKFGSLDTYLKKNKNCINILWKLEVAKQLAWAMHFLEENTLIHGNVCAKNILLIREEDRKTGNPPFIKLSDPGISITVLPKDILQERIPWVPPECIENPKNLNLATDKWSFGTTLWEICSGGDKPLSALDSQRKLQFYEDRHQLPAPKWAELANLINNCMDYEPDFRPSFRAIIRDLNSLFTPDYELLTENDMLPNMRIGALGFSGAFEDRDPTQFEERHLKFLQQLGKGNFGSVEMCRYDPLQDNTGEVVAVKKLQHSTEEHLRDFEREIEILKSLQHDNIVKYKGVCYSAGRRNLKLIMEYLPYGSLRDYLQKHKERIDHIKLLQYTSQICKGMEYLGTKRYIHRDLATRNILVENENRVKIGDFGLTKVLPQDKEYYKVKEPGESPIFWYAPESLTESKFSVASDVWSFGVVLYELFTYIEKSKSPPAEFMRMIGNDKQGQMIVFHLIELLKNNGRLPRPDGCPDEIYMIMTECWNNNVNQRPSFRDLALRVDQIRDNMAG

For CC#CC(=O)N1CCC[C@H]1c1nc(-c2ccc(C(=O)Nc3ccccn3)cc2)c2c(N)nccn12 [Acalabrutinib], the remaining binding at 0.3 µM [1, 10] was 87%, the remaining binding at 0.3 µM [2, 10] was 91% and the remaining binding at 0.3 µM [3, 10] was 74%. The remaining binding at 0.3 µM [4, 10] was 96%, the remaining binding at 0.3 µM [5, 10] was 87% and the remaining binding at 0.3 µM [6, 10] was 85%. The remaining binding at 0.3 µM [7, 10] was 76% and the remaining binding at 0.3 µM [8, 10] was 86%.

C=CC(=O)N1CCC[C@@H](n2nc(-c3ccc(Oc4ccccc4)cc3)c3c(N)ncnc32)C1 [Ibrutinib] gave a remaining binding at 0.3 µM [1, 11] of 3.4%, a remaining binding at 0.3 µM [2, 11] of 75% and a remaining binding at 0.3 µM [3, 11] of 82%. For the same compound, the remaining binding at 0.3 µM [4, 11] was 89%, the remaining binding at 0.3 µM [5, 11] was 45% and the remaining binding at 0.3 µM [7, 11] was 94%. It also gave a remaining binding at 0.3 µM [9, 11] of 71%.

Compound CC#CC(=O)N1CC[C@@H](n2c(=O)n(-c3ccc(Oc4ccccc4)cc3)c3c(N)ncnc32)C1 [Tirabrutinib] has a remaining binding at 0.3 µM [2, 12] of 87%, a remaining binding at 0.3 µM [3, 12] of 92% and a remaining binding at 0.3 µM [4, 12] of 87%. It also gave a remaining binding at 0.3 µM [6, 12] of 77%, a remaining binding at 0.3 µM [9, 12] of 91% and a remaining binding at 0.3 µM [8, 12] of 94%.

In the case of C=CC(=O)N1CCC([C@@H]2CCNc3c(C(N)=O)c(-c4ccc(Oc5ccccc5)cc4)nn32)CC1 [Zanubrutinib], the remaining binding at 0.3 µM [1, 13] is reported as 35%, the remaining binding at 0.3 µM [3, 13] is reported as 75% and the remaining binding at 0.3 µM [4, 13] is reported as 100%. The remaining binding at 0.3 µM [5, 13] was 61%, the remaining binding at 0.3 µM [6, 13] was 96% and the remaining binding at 0.3 µM [7, 13] was 87%. For the same compound, the remaining binding at 0.3 µM [9, 13] was 68% and the remaining binding at 0.3 µM [8, 13] was 100%.
